The results in this text go back to PMC7650660, “Potential of Cell-Free Supernatant from Lactobacillus plantarum NIBR97, Including Novel Bacteriocins, as a Natural Alternative to Chemical Disinfectants” (Pharmaceuticals, 2020).

≈ marks a conversion by molar mass, not a printed value. Peptide text beside a SMILES is read from it.

One data set has as its system Salmonella Typhimurium. It is filed as cell-based. Conditions: synthetic peptides against S. Typhimurium; Figure S3. The protocol: L. plantarum NIBR97 was incubated at 37 °C for 24 h in an MRS liquid medium (10 g/L peptone, 8 g/L meat extract, 4 g/L yeast extract, 20 g/L d(+)-glucose, 2 g/L dipotassium hydrogen phosphate, 5 g/L sodium acetate trihydrate, 2 g/L triammonium citrate, 0.2 g/L magnesium sulfate heptahydrate, and 0.05 g/L manganous sulfate tetrahydrate). The cultural broth was centrifuged for 20 min at 2000× g, and the centrifugal supernatant was collected and then sterilized by a 0.22 μm filtration. The sterilized fluid was either applied directly for the examination of antimicrobial activity or fractionated and stored at −80 °C until use. The assessment of antimicrobial activity on a microtiter plate was performed by some modification of the dilution assay of Wiegand et al.. The MIC50 and MIC90 were expressed as total proteins equivalent (μg) per volume (mL) of the sample, and the effect of proteinase K treatment was examined by a previously described procedure.
Figure 3. Antibacterial activity of synthetic Plantaricins identified from the L. plantarum NIBR97
genome. Pln 1, 2, 3, 4 and 5 were synthesized according to the amino acid sequences in Figure 3, and
further examined for their antibacterial activity against a Salmonella enterica serotype, S.
The Y axis in the graphs represents the relative growth of S. Typhimurium. […]

For data set [1], the system named is HEK-293T cells (human host cells). Description: Cytotoxic effect on host cells (bright-field images) in the lentivirus test. It is filed as cell-based. Conditions: lentiviruses treated with 5 μg/μL of synthetic peptides. How it is done: (A) For fluorescence microscopy, we treated GFP-labeled lentiviruses with the cell-free supernatant for 5 min and 24 h, and then were infected in HEK-293T human host cells. The 1× and 5× correspond to the concentrations treated to the lentiviruses, 79.15 and 395.75 μg total proteins/mL, respectively. The bright-field images (Bright) indicate the HEK-293T cells, and the green signals in the fluorescent images (GFP) represent the GFP-labeled lentiviruses. (B) For scanning electron microscopy, the GFP-labeled lentiviruses were treated without (a) or with the cell-free supernatant (395.75 μg total proteins/mL) (b) for 5 min.
Figure 5 Fluorescence micrographs of HEK-293T cells infected with GFP-labeled lentiviruses treated with synthetic Pln 3 and 5. The lentiviruses were treated without (control) or with the synthetic peptides (1 to 5 μg/μL) Pln 3 (A) and 5 (B) for 5 min or 24 h, and then the HEK-293T human host cells were infected. The bright-field images (Bright) indicate the HEK-293T cells, and the green signals in the fluorescent images (GFP) represent the GFP-labeled lentiviruses.
For the anti-viral test, we co-incubated 2 μL of lentivirus soup (2.8 × 10^6 lentiviruses/μL) with 2 μL of test sample for 5 min and 24 h at 25 °C. After the co-incubation, 2 μL from the total 4 μL of the test sample–lentivirus mixture was infected in HEK-293T cells (1 × 10^4 cells per well).

For orientation: MIC50 means the lowest concentration that inhibits either 50% of growth or 50% of the strains tested, depending on the study. In the data set with Salmonella Typhimurium, `CC(C)C[C@H](NC(=O)[C@H](CCCNC(=N)N)NC(=O)[C@H](CC(N)=O)NC(=O)[C@H](CCCNC(=N)N)NC(=O)[C@H](CC(C)C)NC(=O)[C@H](Cc1ccccc1)NC(=O)[C@H](CCCNC(=N)N)NC(=O)[C@H](CCCCN)NC(=O)[C@H](CCCCN)NC(=O)[C@H](C)NC(=O)[C@@H](N)CCCCN)C(=O)N[C@@H](CO)C(=O)N[C@@H](CCC(N)=O)C(=O)N[C@@H](CCC(N)=O)C(=O)N[C@@H](C)C(=O)N[C@@H](CCCNC(=N)N)C(=O)N[C@@H](CCCCN)C(=O)N[C@@H](C)C(=O)N[C@@H](CCCNC(=N)N)C(=O)N[C@H](C(=O)N[C@@H](CCCCN)C(=O)O)[C@@H](C)O` [Pln 5] (H-KAKKRFLRNRLSQQARKARTK-OH) showed an MIC50 of 4450 µg/mL (≈ 1720 µM). In data set [1], the “cytotoxicity on the human host cells” value is recorded as “exhibited a cytotoxicity on the human host cells”.

For the compound `CC[C@H](C)[C@H](N)C(=O)N[C@@H](Cc1ccc(O)cc1)C(=O)N1CCC[C@H]1C(=O)N[C@@H](CCC(=O)O)C(=O)N[C@@H](CCCCN)C(=O)N[C@@H](CCC(N)=O)C(=O)N1CCC[C@H]1C(=O)N[C@@H](CCC(=O)O)C(=O)N[C@@H](CCC(=O)O)C(=O)N1CCC[C@H]1C(=O)N[C@H](C(=O)N[C@@H](CCCNC(=N)N)C(=O)N[C@@H](CCCNC(=N)N)C(=O)O)C(C)C` [Pln 2] (H-IYPEKQPEEPVRR-OH), in the data set on Salmonella Typhimurium, the MIC50 amounted to 4840 µg/mL (≈ 2950 µM).

Compound `CSCC[C@H](NC(=O)CNC(=O)[C@@H](NC(=O)[C@@H]1CCCN1C(=O)[C@H](CCSC)NC(=O)CNC(=O)[C@H](CC(N)=O)NC(=O)[C@H](CC(N)=O)NC(=O)[C@H](Cc1ccc(O)cc1)NC(=O)[C@@H](NC(=O)[C@H](CCC(N)=O)NC(=O)[C@H](CS)NC(=O)[C@H](CCCNC(=N)N)NC(=O)[C@H](CCCNC(=N)N)NC(=O)[C@H](CO)NC(=O)[C@H](CCCCN)NC(=O)[C@@H](N)CCCCN)C(C)C)[C@@H](C)O)C(=O)N[C@@H](Cc1ccc(O)cc1)C(=O)N[C@H](C(=O)N[C@@H](CO)C(=O)N[C@@H](CS)C(=O)O)[C@@H](C)O` [Pln 3] (H-KKSRRCQVYNNGMPTGMYTSC-OH) registered an MIC50 in the data set with Salmonella Typhimurium of 5170 µg/mL (≈ 2130 µM). Further, the “cytotoxicity on the human host cells” value in data set [1] is “exhibited a cytotoxicity on the human host cells”.

For the compound `CC[C@H](C)[C@H](NC(=O)CNC(=O)[C@@H](NC(=O)[C@H](CO)NC(=O)CNC(=O)[C@@H](NC(=O)[C@H](CC(C)C)NC(=O)[C@H](CO)NC(=O)CNC(=O)[C@H](CC(C)C)NC(=O)[C@@H](N)C(C)C)[C@@H](C)CC)C(C)C)C(=O)NCC(=O)N[C@H](C(=O)N[C@@H](CC(C)C)C(=O)N[C@@H](CO)C(=O)N[C@@H](CO)C(=O)N[C@@H](CC(C)C)C(=O)N[C@@H](C)C(=O)N[C@@H](C)C(=O)N[C@@H](CCCNC(=N)N)C(=O)N[C@@H](Cc1ccc(O)cc1)C(=O)N[C@@H](CCCCN)C(=O)O)C(C)C` [Pln 1] (H-VLGSLIGSVGIGVLSSLAARYK-OH), in the data set with Salmonella Typhimurium, the MIC50 is 5480 µg/mL (≈ 2540 µM).

For `CC[C@H](C)[C@H](NC(=O)CNC(=O)[C@@H](NC(=O)[C@H](C)NC(=O)[C@H](CCSC)NC(=O)[C@H](C)NC(=O)[C@H](CCCCN)NC(=O)[C@H](Cc1ccccc1)NC(=O)[C@@H]1CCCN1C(=O)[C@H](CCC(=O)O)NC(=O)[C@H](CCCNC(=N)N)NC(=O)[C@@H](NC(=O)[C@@H](NC(=O)[C@@H]1CCCN1)[C@@H](C)CC)C(C)C)C(C)C)C(=O)N[C@H](C(=O)N[C@@H](CC(C)C)C(=O)N[C@@H](C)C(=O)N[C@H](C(=O)N[C@@H](CCSC)C(=O)N[C@@H](CO)C(=O)NCC(=O)N[C@@H](CC(C)C)C(=O)N[C@@H](CC(C)C)C(=O)N[C@H](C(=O)N[C@H](C(=O)O)[C@@H](C)O)C(C)C)C(C)C)[C@@H](C)CC` [Pln 4] (H-PIVREPFKAMAVGIILAVMSGLLVT-OH), the MIC50 against Salmonella Typhimurium is 5650 µg/mL (≈ 2150 µM).
